In ChEMBL document CHEMBL3994622, “Design and synthesis of new RAF kinase-inhibiting antiproliferative quinoline derivatives. Part 2: Diarylurea derivatives” (Eur J Med Chem, 2017):

Tests used:
Assay type in all cases: functional
SF-295 [1] = assay: Growth inhibition of human SF295 cells assessed as cell growth at 10 uM incubated for 48 hrs by sulforhodamine B assay relative to control; conditions: SF-295, 48 h, read-out: Activity
UACC-257 [2] = assay: Growth inhibition of human UACC257 cells assessed as cell growth at 10 uM incubated for 48 hrs by sulforhodamine B assay relative to control; conditions: UACC-257, 48 h, read-out: Activity
HCC 2998 = assay: Growth inhibition of human HCC2998 cells assessed as cell growth at 10 uM incubated for 48 hrs by sulforhodamine B assay relative to control; conditions: HCC 2998, 48 h, read-out: Activity
SNB-75 [3] = assay: Growth inhibition of human SNB75 cells assessed as cell growth at 10 uM incubated for 48 hrs by sulforhodamine B assay relative to control; conditions: SNB-75, 48 h, read-out: Activity
MDA-MB-435 = assay: Growth inhibition of human MDA-MB-435 cells assessed as cell growth at 10 uM incubated for 48 hrs by sulforhodamine B assay relative to control; conditions: MDA-MB-435, 48 h, read-out: Activity
CAKI-1 = assay: Growth inhibition of human Caki1 cells assessed as cell growth at 10 uM incubated for 48 hrs by sulforhodamine B assay relative to control; conditions: CAKI-1, 48 h, read-out: Activity
OVCAR-5 = assay: Growth inhibition of human OVCAR5 cells assessed as cell growth at 10 uM incubated for 48 hrs by sulforhodamine B assay relative to control; conditions: OVCAR-5, 48 h, read-out: Activity
NCI-H226 = assay: Growth inhibition of human NCI-H226 cells assessed as cell growth at 10 uM incubated for 48 hrs by sulforhodamine B assay relative to control; conditions: NCI-H226, 48 h, read-out: Activity
UO-31 = assay: Growth inhibition of human UO31 cells assessed as cell growth at 10 uM incubated for 48 hrs by sulforhodamine B assay relative to control; conditions: UO-31, 48 h, read-out: Activity
HT-29 = assay: Growth inhibition of human HT-29 cells assessed as cell growth at 10 uM incubated for 48 hrs by sulforhodamine B assay relative to control; conditions: HT-29, 48 h, read-out: Activity
BT-549 = assay: Growth inhibition of human BT549 cells assessed as cell growth at 10 uM incubated for 48 hrs by sulforhodamine B assay relative to control; conditions: BT-549, 48 h, read-out: Activity
HOP-62 = assay: Growth inhibition of human HOP62 cells assessed as cell growth at 10 uM incubated for 48 hrs by sulforhodamine B assay relative to control; conditions: HOP-62, 48 h, read-out: Activity
NCI-H522 = assay: Growth inhibition of human NCI-H522 cells assessed as cell growth at 10 uM incubated for 48 hrs by sulforhodamine B assay relative to control; conditions: NCI-H522, 48 h, read-out: Activity
MCF7 = assay: Growth inhibition of human MCF7 cells assessed as cell growth at 10 uM incubated for 48 hrs by sulforhodamine B assay relative to control; conditions: MCF7, 48 h, read-out: Activity
IGROV-1 = assay: Growth inhibition of human IGROV1 cells assessed as cell growth at 10 uM incubated for 48 hrs by sulforhodamine B assay relative to control; conditions: IGROV-1, 48 h, read-out: Activity
K562 [4] = assay: Growth inhibition of human K562 cells assessed as cell growth at 10 uM incubated for 48 hrs by sulforhodamine B assay relative to control; conditions: K562, 48 h, read-out: Activity
SK-MEL-2 = assay: Growth inhibition of human SK-MEL-2 cells assessed as cell growth at 10 uM incubated for 48 hrs by sulforhodamine B assay relative to control; conditions: SK-MEL-2, 48 h, read-out: Activity
HCT-116 = assay: Growth inhibition of human HCT116 cells assessed as cell growth at 10 uM incubated for 48 hrs by sulforhodamine B assay relative to control; conditions: HCT-116, 48 h, read-out: Activity
MDA-MB-231 = assay: Growth inhibition of human MDA-MB-231 cells assessed as cell growth at 10 uM incubated for 48 hrs by sulforhodamine B assay relative to control; conditions: MDA-MB-231, 48 h, read-out: Activity
UACC-62 = assay: Growth inhibition of human UACC62 cells assessed as cell growth at 10 uM incubated for 48 hrs by sulforhodamine B assay relative to control; conditions: UACC-62, 48 h, read-out: Activity
MDA-MB-468 = assay: Growth inhibition of human MDA-MB-468 cells assessed as cell growth at 10 uM incubated for 48 hrs by sulforhodamine B assay relative to control; conditions: MDA-MB-468, 48 h, read-out: Activity
COLO 205 = assay: Growth inhibition of human COLO205 cells assessed as cell growth at 10 uM incubated for 48 hrs by sulforhodamine B assay relative to control; conditions: COLO 205, 48 h, read-out: Activity
OVCAR-3 = assay: Growth inhibition of human OVCAR3 cells assessed as cell growth at 10 uM incubated for 48 hrs by sulforhodamine B assay relative to control; conditions: OVCAR-3, 48 h, read-out: Activity
A498 = assay: Growth inhibition of human A498 cells assessed as cell growth at 10 uM incubated for 48 hrs by sulforhodamine B assay relative to control; conditions: A498, 48 h, read-out: Activity
CCRF-CEM = assay: Growth inhibition of human CCRF-CEM cells incubated for 48 hrs by sulforhodamine B assay
SNB-75 [5] = assay: Growth inhibition of human SNB75 cells incubated for 48 hrs by sulforhodamine B assay; conditions: SNB-75, 48 h
UACC-257 [6] = assay: Growth inhibition of human UACC257 cells incubated for 48 hrs by sulforhodamine B assay; conditions: UACC-257, 48 h
SR = assay: Growth inhibition of human SR cells incubated for 48 hrs by sulforhodamine B assay
SF-295 [7] = assay: Growth inhibition of human SF295 cells incubated for 48 hrs by sulforhodamine B assay; conditions: SF-295, 48 h
M14 = assay: Growth inhibition of human M14 cells incubated for 48 hrs by sulforhodamine B assay; conditions: M14, 48 h
K562 [8] = assay: Growth inhibition of human K562 cells incubated for 48 hrs by sulforhodamine B assay; conditions: K562, 48 h
PC-3 = assay: Growth inhibition of human PC3 cells incubated for 48 hrs by sulforhodamine B assay; conditions: PC-3, 48 h
[9] = read-out: LC50 (the source's name)

Compound: COc1cc2cc(Oc3ccc(NC(=O)Nc4ccc(C(F)(F)F)cc4)cc3)c(C)nc2cc1OC
- growth at 10 µM (SF-295 [1]): 56%
- growth at 10 µM (UACC-257 [2]): 66.5%
- growth at 10 µM (HCC 2998): 94.8%
- growth at 10 µM (SNB-75 [3]): 41%
- growth at 10 µM (MDA-MB-435): 80.3%
- growth at 10 µM (CAKI-1): 70.4%
- growth at 10 µM (OVCAR-5): 92.9%
- growth at 10 µM (NCI-H226): 20.9%
- growth at 10 µM (UO-31): 87.6%
- growth at 10 µM (HT-29): 44.6%
- growth at 10 µM (BT-549): 113%
- growth at 10 µM (HOP-62): 18.8%
- growth at 10 µM (NCI-H522): 63.2%
- growth at 10 µM (MCF7): 84.3%
- growth at 10 µM (IGROV-1): 71.9%
- growth at 10 µM (K562 [4]): 57.1%
- growth at 10 µM (SK-MEL-2): 76.7%
- growth at 10 µM (HCT-116): 47.2%
- growth at 10 µM (MDA-MB-231): 80.9%
- growth at 10 µM (UACC-62): 69.2%
- growth at 10 µM (MDA-MB-468): 40.1%
- growth at 10 µM (COLO 205): 40.4%
- growth at 10 µM (OVCAR-3): 67%
- growth at 10 µM (A498): 90.5%

Compound: Cc1nc2cc(O)c(O)cc2cc1Oc1ccc(NC(=O)Nc2ccc(Cl)c(Cl)c2)cc1
- growth at 10 µM (SF-295 [1]): 95.9%
- growth at 10 µM (UACC-257 [2]): 88.5%
- growth at 10 µM (HCC 2998): 93.4%
- GI50 (CCRF-CEM): 6.19 µM
- TGI (CCRF-CEM): 21.8 µM
- CC50 (CCRF-CEM; [9]): > 32.5 µM
- growth at 10 µM (SNB-75 [3]): 75.8%
- GI50 (SNB-75 [5]): 7.73 µM
- TGI (SNB-75 [5]): 28.9 µM
- CC50 (SNB-75 [5]; [9]): > 32.5 µM
- growth at 10 µM (MDA-MB-435): 54.2%
- growth at 10 µM (CAKI-1): 27.3%
- growth at 10 µM (OVCAR-5): 122%
- GI50 (UACC-257 [6]): 7.27 µM
- TGI (UACC-257 [6]): 21.3 µM
- CC50 (UACC-257 [6]; [9]): > 32.5 µM
- growth at 10 µM (NCI-H226): 38.3%
- growth at 10 µM (UO-31): 58.6%
- GI50 (SR): 1560 nM
- TGI (SR): 12.3 µM
- CC50 (SR; [9]): > 32.5 µM
- growth at 10 µM (HT-29): 48%
- growth at 10 µM (BT-549): 82.2%
- growth at 10 µM (HOP-62): 35.7%
- GI50 (SF-295 [7]): 11.4 µM
- TGI (SF-295 [7]): > 32.5 µM
- CC50 (SF-295 [7]; [9]): > 32.5 µM
- growth at 10 µM (NCI-H522): 1.87%
- growth at 10 µM (MCF7): 76.2%
- growth at 10 µM (IGROV-1): 67.1%
- growth at 10 µM (K562 [4]): 53.9%
- growth at 10 µM (SK-MEL-2): 77.7%
- growth at 10 µM (HCT-116): 44.6%
- growth at 10 µM (MDA-MB-231): 45%
- growth at 10 µM (UACC-62): 84.5%
- growth at 10 µM (COLO 205): 34.7%
- GI50 (M14): 5.97 µM
- TGI (M14): 13.8 µM
- CC50 (M14; [9]): 32 µM
- GI50 (K562 [8]): 6.93 µM
- LC50 (concentration killing 50% of cells) (K562 [8]): > 32.5 µM
- TGI (K562 [8]): 29.6 µM
- GI50 (PC-3): 4.36 µM
- TGI (PC-3): > 32.5 µM
- CC50 (PC-3; [9]): > 32.5 µM
- growth at 10 µM (OVCAR-3): 67.9%
- growth at 10 µM (A498): 118%

Compound: COc1cc2cc(Oc3ccc(NC(=O)Nc4ccc(C)cc4)cc3)c(C)nc2cc1OC
- growth at 10 µM (SF-295 [1]): 107%
- growth at 10 µM (UACC-257 [2]): 112%
- growth at 10 µM (HCC 2998): 104%
- growth at 10 µM (SNB-75 [3]): 56.3%
- growth at 10 µM (MDA-MB-435): 107%
- growth at 10 µM (CAKI-1): 98.2%
- growth at 10 µM (OVCAR-5): 110%
- growth at 10 µM (NCI-H226): 102%
- growth at 10 µM (UO-31): 89.2%
- growth at 10 µM (HT-29): 115%
- growth at 10 µM (BT-549): 130%
- growth at 10 µM (HOP-62): 66.9%
- growth at 10 µM (NCI-H522): 69.9%
- growth at 10 µM (MCF7): 94.5%
- growth at 10 µM (IGROV-1): 101%
- growth at 10 µM (K562 [4]): 90.8%
- growth at 10 µM (SK-MEL-2): 91.5%
- growth at 10 µM (HCT-116): 107%
- growth at 10 µM (MDA-MB-231): 85.6%
- growth at 10 µM (UACC-62): 99.3%
- growth at 10 µM (MDA-MB-468): 97.1%
- growth at 10 µM (COLO 205): 111%
- growth at 10 µM (OVCAR-3): 113%
- growth at 10 µM (A498): 116%
